Measured values from the NIST ThermoML archive (doi:10.1021/je050013y).
Numbers after ± are expanded uncertainties.

How the values were obtained:
[1] = refractive index (Na D-line) (dimensionless); conditions: 293.15 K; 101.33 kPa; Liquid; Standard Abbe refractometry
[2] = 293.15 K; 101.33 kPa; Liquid

SMILES | refractive index [1] | mass density [2]
COC(C)(C)OC [3,3-dimethyl-2,4-dioxapentane] | 1.378 ± 0.0007 | 840.2 ± 4.5 kg/m3
CC(C)=O [acetone] | 1.3589 ± 0.0007 | 784.6 ± 3 kg/m3
CO [methanol] | 1.3289 ± 0.0007 | 786.5 ± 0.3 kg/m3
